The results in this text go back to PubChem BioAssay AID248 (DTP/NCI, 2004).

SMILES strings stand for the structures. Several values for one entry are separate records, joined by “and”; a condition that tells them apart may be missing. Equal entries are not always repeated. Inconclusive results and toxic doses are left out.

This assay concerns L1210 leukemia ip in BDF1 mice, survival T/C. In words: NCI In Vivo Anticancer Drug Screen. Data for tumor model L1210 Leukemia (intraperitoneal) in B6D2F1 (BDF1) mice. The conditions noted are these: endpoint: mean survival time, higher = longer survival. The method, boiled down:
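Transplantable tumor model; survival measured in treated vs vehicle control mice. Value = treated/control.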

[1] abbreviates: dose: 100.0 mg/kg/injection, schedule: Q01DX001 (ip), vehicle: other.
Where [2] appears, read: dose: 200.0 mg/kg/injection, schedule: Q01DX001 (ip), vehicle: other.
The mark [3] stands for this setting: dose: 400.0 mg/kg/injection, schedule: Q01DX001 (ip), vehicle: other.
[4] abbreviates: dose: 100.0 mg/kg/injection, schedule: Q01DX001 (sc), vehicle: steriod suspending solution.
Setting [5] is: dose: 200.0 mg/kg/injection, schedule: Q01DX001 (sc), vehicle: steriod suspending solution.
Setting [6] is: dose: 400.0 mg/kg/injection, schedule: Q01DX001 (sc), vehicle: steriod suspending solution.
The mark [7] stands for this setting: dose: 100.0 mg/kg/injection, schedule: Q01DX001 (ip), vehicle: carboxymethylcellulose (CMC).
Where [8] appears, read: dose: 100.0 mg/kg/injection, schedule: Q01DX009 (ip), vehicle: Klucel (hydroxypropylcellulose) (HPC).
Setting [9] is: dose: 200.0 mg/kg/injection, schedule: Q01DX009 (ip), vehicle: Klucel (hydroxypropylcellulose) (HPC).
Where [10] appears, read: dose: 400.0 mg/kg/injection, schedule: Q01DX009 (ip), vehicle: Klucel (hydroxypropylcellulose) (HPC).

`CCCCCCCCCCCCCCCCCC(CC)c1ccccc1` (configuration not stated): the T/C by setting is: (dose: 100.0 mg/kg/injection, schedule: Q01DX001 (ip), vehicle: saline with Tween-80) 104 % of control; (dose: 200.0 mg/kg/injection, schedule: Q01DX001 (ip), vehicle: saline with Tween-80) 94 % of control; (dose: 400.0 mg/kg/injection, schedule: Q01DX001 (ip), vehicle: saline with Tween-80) 94 % of control.
In the case of `CC(C)c1ccc(C2(C)CCCCC2=O)cc1` (configuration not stated), the T/C is 101 % of control under setting [1], 103 % of control under setting [2] and 93 % of control under setting [3].
Consider `O=C1OCCC1C(=O)C(O)(C(F)(F)F)C(F)(F)F` (configuration not stated), for which the T/C is, setting by setting: (dose: 100.0 mg/kg/injection, schedule: Q01DX009 (ip), vehicle: other) 96 % of control; (dose: 200.0 mg/kg/injection, schedule: Q01DX009 (ip), vehicle: other) 100 % of control; (dose: 400.0 mg/kg/injection, schedule: Q01DX009 (ip), vehicle: other) 94 % of control.
As to `CCCN(CCC)S(=O)(=O)c1ccc(NC(=O)OC(c2ccccc2)(c2ccccc2)c2ccccc2)cc1`, the T/C is 100 % of control (dose: 100.0 mg/kg/injection, schedule: Q01DX001 (ip), vehicle: saline); 97 % of control (dose: 200.0 mg/kg/injection, schedule: Q01DX001 (ip), vehicle: saline); 94 % of control (dose: 400.0 mg/kg/injection, schedule: Q01DX001 (ip), vehicle: saline).
Consider `COC1OC(CBr)C(OS(C)(=O)=O)C(OC(=O)c2ccccc2)C1OC(=O)c1ccccc1` (configuration not stated), for which the T/C is, setting by setting: (dose: 100.0 mg/kg/injection, schedule: Q04DX002 (ip), vehicle: Klucel (hydroxypropylcellulose) (HPC)) 103 % of control; (dose: 200.0 mg/kg/injection, schedule: Q04DX002 (ip), vehicle: Klucel (hydroxypropylcellulose) (HPC)) 91 % of control; (dose: 400.0 mg/kg/injection, schedule: Q04DX002 (ip), vehicle: Klucel (hydroxypropylcellulose) (HPC)) 94 % of control.
`Cc1cccc(C(=O)O)n1.[Cu+2]`: the T/C was 103 % of control (dose: 5.0 mg/kg/injection, schedule: Q01DX001 (ip), vehicle: saline) and 113 % of control (dose: 10.0 mg/kg/injection, schedule: Q01DX001 (ip), vehicle: saline).
Consider `CC(=O)O[C@H]1CC[C@H]2[C@@H]3[C@H](C)CC4=CC(=O)CCC4[C@H]3CC[C@]12C` (some centres not stated), for which the T/C was 98 % of control under setting [4], 100 % of control under setting [5] and 102 % of control under setting [6].
`O=c1[nH]cnc2c1nnn2C1OC(CO)C(O)C1O` (configuration not stated): the T/C is, setting by setting: (dose: 90.0 mg/kg/injection, schedule: Q01DX009 (ip), vehicle: saline) 155 % of control and 160 % of control; (dose: 135.0 mg/kg/injection, schedule: Q01DX009 (ip), vehicle: saline) 163 % of control.
As to `CC(=O)Nc1ccc2c(c1)C(N(C)C)c1ccccc1-2` (configuration not stated), the T/C (dose: 50.0 mg/kg/injection, schedule: Q01DX001 (ip), vehicle: carboxymethylcellulose (CMC)) was 101 % of control and the T/C under setting [7] is 106 % of control.
`Cc1ccc([N+](=O)[O-])cc1NC(=O)NCCc1ccccc1`: the T/C under setting [8] was 97 % of control, the T/C under setting [9] is 87 % of control and the T/C under setting [10] is 92 % of control.
Consider `Nc1nc2c(c(=O)[nH]1)[N+]1=CN(c3ccc(C(=O)NC(CCC(=O)O)C(=O)O)cc3)CCC1CN2` (configuration not stated), for which the T/C (dose: 1.0 mg/kg/injection, schedule: Q01DX009 (ip), vehicle: saline) was 94 % of control; the T/C (dose: 2.0 mg/kg/injection, schedule: Q01DX009 (ip), vehicle: saline) is 100 % of control; the T/C (dose: 4.0 mg/kg/injection, schedule: Q01DX009 (ip), vehicle: saline) was 105 % of control; the T/C (dose: 4.0 mg/kg/injection, schedule: Q04DX003 (ip), vehicle: saline) is 97 % of control; the T/C (dose: 8.0 mg/kg/injection, schedule: Q01DX009 (ip), vehicle: saline) is 94 % of control; the T/C (dose: 8.0 mg/kg/injection, schedule: Q04DX003 (ip), vehicle: saline) is 100 % of control. The T/C is 97 % of control (dose: 16.0 mg/kg/injection, schedule: Q01DX009 (ip), vehicle: saline); 99 % of control (dose: 16.0 mg/kg/injection, schedule: Q04DX003 (ip), vehicle: saline); 90 % of control (dose: 32.0 mg/kg/injection, schedule: Q04DX003 (ip), vehicle: saline); 97 % of control (dose: 64.0 mg/kg/injection, schedule: Q04DX003 (ip), vehicle: saline).
Turning to `CCc1cccc(CC)c1N1C(=O)C=CC1=O`, the T/C reads like this: (dose: 1.56 mg/kg/injection, schedule: Q01DX009 (ip), vehicle: other) 102 % of control; (dose: 3.13 mg/kg/injection, schedule: Q01DX009 (ip), vehicle: other) 105 % of control; (dose: 3.13 mg/kg/injection, schedule: Q04DX002 (ip), vehicle: other) 87 % of control; (dose: 6.25 mg/kg/injection, schedule: Q01DX009 (ip), vehicle: other) 105 % of control; (dose: 6.25 mg/kg/injection, schedule: Q04DX002 (ip), vehicle: other) 93 % of control; (dose: 12.5 mg/kg/injection, schedule: Q04DX002 (ip), vehicle: other) 107 % of control.
As for `Cc1cccc(C2CCCC2c2ccccc2)c1` (configuration not stated), the T/C is, setting by setting: under setting [8], 96 % of control; (dose: 100.0 mg/kg/injection, schedule: Q04DX003 (ip), vehicle: Klucel (hydroxypropylcellulose) (HPC)) 110 % of control; under setting [9], 89 % of control; (dose: 200.0 mg/kg/injection, schedule: Q04DX003 (ip), vehicle: Klucel (hydroxypropylcellulose) (HPC)) 94 % of control; under setting [10], 101 % of control; (dose: 400.0 mg/kg/injection, schedule: Q04DX003 (ip), vehicle: Klucel (hydroxypropylcellulose) (HPC)) 108 % of control.
On to `CC1CC[N-]CC1.CC1CC[N-]CC1.CS(C)=O.[Cl][Rh]([Cl])[Cl]`, for which the T/C by setting is: (dose: 3.0 mg/kg/injection, schedule: Q01DX009 (ip), vehicle: saline with Tween-80) 98 % of control; (dose: 6.0 mg/kg/injection, schedule: Q01DX009 (ip), vehicle: saline with Tween-80) 106 % of control; (dose: 12.0 mg/kg/injection, schedule: Q01DX009 (ip), vehicle: saline with Tween-80) 109 % of control.
Consider `CCOC(=O)CCN1CCCCCC1`, for which the T/C is 104 % of control (dose: 100.0 mg/kg/injection, schedule: Q01DX009 (ip), vehicle: saline); 92 % of control (dose: 100.0 mg/kg/injection, schedule: Q04DX003 (ip), vehicle: saline); 104 % of control (dose: 200.0 mg/kg/injection, schedule: Q01DX009 (ip), vehicle: saline); 98 % of control (dose: 200.0 mg/kg/injection, schedule: Q04DX003 (ip), vehicle: saline); 101 % of control (dose: 400.0 mg/kg/injection, schedule: Q01DX009 (ip), vehicle: saline); 102 % of control (dose: 400.0 mg/kg/injection, schedule: Q04DX003 (ip), vehicle: saline).
In the case of `O=C1CC(c2ccc(O)cc2)CC(=O)C1C(=O)Nc1ccccc1` (configuration not stated), the T/C under setting [1] was 101 % of control, the T/C under setting [2] is 100 % of control and the T/C under setting [3] was 97 % of control.
As to `CC1OC(n2ccc(NC(=O)c3ccc(NC(=O)C(C)(N)CO)cc3)nc2=O)CCC1OC1OC(C)C(N(C)C)C(O)C1O` (configuration not stated), the T/C reads like this: under setting [7], 106 % of control; (dose: 200.0 mg/kg/injection, schedule: Q01DX001 (ip), vehicle: carboxymethylcellulose (CMC)) 100 % of control; (dose: 400.0 mg/kg/injection, schedule: Q01DX001 (ip), vehicle: carboxymethylcellulose (CMC)) 106 % of control.
In the case of `C[C@]12C=CC(=O)C=C1CC[C@H]1[C@@H]3CCC(=O)O[C@@]3(C)CC(=O)[C@@]12F`, the T/C is, setting by setting: (dose: 50.0 mg/kg/injection, schedule: Q01DX001 (sc), vehicle: steriod suspending solution) 102 % of control; (dose: 50.0 mg/kg/injection, schedule: Q01DX009 (sc), vehicle: steriod suspending solution) 102 % of control; under setting [4], 104 % of control; (dose: 100.0 mg/kg/injection, schedule: Q01DX009 (sc), vehicle: steriod suspending solution) 100 % of control; under setting [5], 107 % of control; (dose: 200.0 mg/kg/injection, schedule: Q01DX009 (sc), vehicle: steriod suspending solution) 97 % of control. The T/C under setting [6] is 113 % of control and the T/C (dose: 400.0 mg/kg/injection, schedule: Q01DX009 (sc), vehicle: steriod suspending solution) was 100 % of control.
